{
  "source": "patent US20160264558A1",
  "about": "“FLUOROGENIC PROTECTING GROUP” (ISIS INNOVATION LIMITED, priority 2013, published 2016)",
  "key": {"[1]": {"assay": "Fluorimetry of compound A and its reduced counterpart B", "type": "physicochemical", "details": "50 μM in iPrOH, excitation wavelength 515 nm, (FIG. 6)", "method": "Compound A (Example 7) was synthesised in accordance with Sun et at (Chem. Commun., 2013, 49, 3890-3892). Fluorescence spectra of the compound, as well as its reduced counterpart compound B, was confirmed by fluorimetry.\n50 μM solutions of A and B were prepared in iPrOH and fluorimetry carried out using a Perkin Elmer Luminescence Spectrometer LS 50 B with an excitation wavelength of 515 nm. Results are depicted in FIG. 6."}, "[2]": {"target": "T1, Cytochrome P450 reductase (Homo sapiens, UniProt P16435)", "T1 sequence (P16435 1-677)": "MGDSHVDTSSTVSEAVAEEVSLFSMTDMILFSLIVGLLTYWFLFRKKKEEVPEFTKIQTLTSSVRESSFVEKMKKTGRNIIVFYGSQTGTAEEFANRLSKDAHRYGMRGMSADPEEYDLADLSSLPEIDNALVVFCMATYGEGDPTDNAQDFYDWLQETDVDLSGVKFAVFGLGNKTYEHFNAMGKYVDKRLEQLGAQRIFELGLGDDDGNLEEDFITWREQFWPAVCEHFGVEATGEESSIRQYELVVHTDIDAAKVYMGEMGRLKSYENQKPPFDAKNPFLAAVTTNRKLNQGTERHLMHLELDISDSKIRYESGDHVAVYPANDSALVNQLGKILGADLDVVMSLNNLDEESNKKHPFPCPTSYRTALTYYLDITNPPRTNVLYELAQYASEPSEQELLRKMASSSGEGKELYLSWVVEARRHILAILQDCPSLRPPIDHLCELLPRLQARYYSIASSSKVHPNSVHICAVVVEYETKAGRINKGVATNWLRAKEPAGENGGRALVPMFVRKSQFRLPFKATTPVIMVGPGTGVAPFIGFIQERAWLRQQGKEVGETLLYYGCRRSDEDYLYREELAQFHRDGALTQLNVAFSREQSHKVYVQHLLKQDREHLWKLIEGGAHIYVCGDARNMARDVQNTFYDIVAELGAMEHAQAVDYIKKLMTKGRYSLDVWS", "assay": "Cytochrome P450 reductase assay of compound A", "type": "in vitro ADME", "details": "anaerobic conditions, over 8 h (FIG. 8)", "method": "Compound A was subject to a Cytochrome P450 reductase assay in accordance with the procedure of Cazares-Korner (CH-01 is a hypoxia-activated prodrug that sensitizes cells to hypoxia/reoxygenation through inhibition of Chk1 and Aurora A., ACS Chem. Biol. 2013 DOI:10.1021/cb4001537).\nFIG. 8 records absorbance at 0, 2, 4 and 8 hours under hypoxic (FIG. 8a) and normoxic (FIG. 8b) conditions."}, "[3]": {"tested_on": "RKO (colorectal) cancer cell lines", "assay": "Cell-based assay: incubation in RKO cells, HPLC of the lysate", "method": "Compound 21 was administered to cells in culture and incubated in (a) hypoxic and (b) normoxic conditions.\nRKO (colorectal) cancer cell lines were cultured in DMEM medium containing 10% FBS, penicillin (100 U/mL) and streptomycin (100 μg/mL). RKO cell line was originally obtained from the ATCC and routinely mycoplasma tested and found to be negative. Experiments were carried out with cells at 75% confluence.\nHypoxia Treatments were carried out in a Bactron II (Shell laboratories), In vivo 400 (Ruskinn), or Heracell mixed gas incubator (Fisher Scientific) depending on the level of hypoxia required.\nHPLC Analysis HPLC (Waters 2695 system) comprised an RPB column (100 mm×3.2 mm, 35° C.). […] Detection used a photodiode array spectrophotometer (Waters 2996), a mass spectrometer (Waters Micromass ZQ mass spectrometer), and a UV spectrometer (Waters 296 diode array detector) scanning from 210 nm to 400 nm with a resolution set at 3.6 nm. Injections of 10 μL were made."}, "BRD4": {"target": "BRD4 (Homo sapiens, UniProt O60885)", "assay": "AlphaScreen assay against BRD4", "type": "binding"}, "[4]": {"target": "T2, purified human cytochrome p450 reductase (Homo sapiens, UniProt P16435)", "T2 construct": "purchased Cypex", "T2 sequence (P16435 1-677)": "T1 sequence (P16435 1-677)", "assay": "Purified reductase assay (hypoxic/normoxic incubation, HPLC)", "type": "in vitro ADME", "details": "250 nM", "method": "The bioreductive compound 18 (Example 1) was incubated with purified human cytochrome p450 reductase in hypoxic and normoxic conditions.\nBactosomal human NADPH-CYP reductase (Cypex, 12.7 mg/mL, 13900 nmol/min/mL) was used in combination with an NADPH-regenerating system (BD Biosciences), and the assay was carried out according to the manufacturer's protocol (BD Biosciences application note 467) at a compound 18 concentration of 250 nM. For hypoxic conditions, vials were deoxygenated by bubbling nitrogen prior to P450 addition and then transferred into a Bactron II (Shell laboratories). Samples were taken at different time points and analyzed by HPLC."}},
  "note": "pIC50: −log10 of the molar value.",
  "data": [
    {"smiles": "N#CC(C#N)=C1C=C(/C=C/c2ccc(N=[N+]=[N-])cc2)Oc2ccccc21", "note": "[Compound A, (E)-2-(2-(4-azidostyryl)-4H-chromen-4-ylidene)malononitrile]", "values": [
      {"measurement": "difference in fluorescence emission between A and B", "setting": "[1]", "result": "~650", "unit": "fold"},
      {"measurement": "reductive conversion to compound B", "setting": "[2]", "result": "trace reductive conversion to compound B"}
    ]},
    {"smiles": "CC(=O)Nc1ccc(OCc2c([N+](=O)[O-])ccc3ncccc23)cc1", "note": "[Compound 21, N-(4-((6-Nitroquinolin-5-yl)methoxy)phenyl)acetamide]", "values": [
      {"measurement": "melting point", "result": "204 to 206", "unit": "°C"},
      {"measurement": "UV absorbance of the compound's peak in the cell lysate", "setting": "[3]; hypoxia, HPLC (FIG. 3a)", "result": "hypoxia-dependent decrease in UV absorbance"},
      {"measurement": "UV absorbance of the compound's peak in the cell lysate", "setting": "[3]; normoxia, over 24 h, HPLC (FIG. 3b)", "result": "continued to increase"}
    ]},
    {"smiles": "Cc1noc(C)c1-c1cc(OCc2c([N+](=O)[O-])ccc3ncccc23)cc(C(O)c2ccccc2)c1", "note": "(stereo not drawn) [Compound 18, (3-(3,5-Dimethylisoxazol-4-yl)-5-((6-nitroquinolin-5-yl)methoxy)phenyl)(phenyl) methanol]", "values": [
      {"measurement": "decrease in potency vs compound 3", "setting": "BRD4; BRD4 AlphaScreen IC50, compound 18 vs compound 3", "result": 2, "unit": "fold"},
      {"measurement": "pIC50", "setting": "BRD4; same AlphaScreen assay", "result": 6.13},
      {"measurement": "reduction/fragmentation by human CYP reductase", "setting": "[4]; hypoxic conditions, HPLC (FIG. 2a)", "result": "undergoes reduction by human CYP, including fragmentation to release compound 3"},
      {"measurement": "reduction/fragmentation by human CYP reductase", "setting": "[4]; normoxic conditions, HPLC (FIG. 2b)", "result": "no activation was observed"}
    ]}
  ]
}
